# Legend:
# human pancreatic islets = assay: Glucagon secretion in perifused human islets; assay type: cell-based; conditions: islets from a healthy donor; G3+Arg
# Experimental: For glucagon secretion, glucose (Boston BioProducts #BM-675) solutions, G3, G16.7 and G3 plus 20 mM arginine (Sigma #A8094; G3+Arg) were prepared in PB [24 mM NaHCO3 (Fisher Scientific #S233-500), 120 mM NaCl (Spectrum Chemical #S0155), 4.8 mM KCl (Fisher Scientific #P217-500), 2.5 mM CaCl2 (Fisher Scientific #C614-500), 1.2 mM MgCl2 (Sigma #M8266), 10 mM HEPES (Gibco #15630-080) and 0.1% BSA (EMD Millipore #12-675-100GM)]. Various concentrations of Compound 1 and diazoxide (Sigma #D9035) were prepared in G16.7 or in G3+Arg. On the day of the assay, ten perifusion chambers (Biorep #Peri-chamber) were loaded with a bead suspension (Biorep #Peri-beads-20) followed by 300 IEQ and another layer of bead suspension. Chambers were filled with PB, placed in the perifusion equipment and equilibrated with G3 for 74 min (flow rate=230 μL/min) followed by the perifusion steps for glucagon secretion shown in Table 3. […] Glucagon concentration was quantified using the commercially-available Mercodia Glucagon ELISA (Mercodia #10-1271-01) kit. undiluted perfusate samples were added to the supplied pre-coated assay plates. […] The optical density of each well was determined at 450 nm in a Tecan M1000Pro (Tecan, Switzerland) multiplate reader. Glucagon concentrations were calculated by regression to the standard curve using GraphPad Prism (GraphPad, San Diego, Calif.).
# [1] = Exposure in non-fasted male rats; conditions: Sprague Dawley, rat, in vivo, oral, 10 mg/kg
# [2] = SAD study pharmacokinetics; assay type: in vivo, human
# Description: This Phase 1, first-in-human, double-blind, randomized, placebo-controlled study will evaluate the safety of Compound 1 in healthy volunteers as well as the relationship between exposure and key pharmacodynamic (PD) parameters. The study will initiate with a single ascending dose (SAD) phase followed by a multiple ascending dose (MAD) phase. Food effect will also be evaluated in subset of subjects in the SAD phase. Results will be used to inform endpoints and other parameters in later studies in patients with congenital HI.
# SAD 1a/Part 1a: ascending single dose, randomized, placebo-controlled, double-blind; up to 10 cohorts, n=8/cohort; subjects in SAD 1a will undergo an IVGTT. Doses will escalate from 0.5 mg to 120 mg.
# SAD 1c/Part 1c: single dose, 1-arm crossover food effect investigation; 1 cohort, n=6; SAD 1c will not be placebo-controlled or blinded. The dose is 120 mg.
# In SAD 1c, subjects will participate in a 1-arm crossover investigation to evaluate the effect of a high-fat meal on Compound 1 absorption.
# [3] = MAD study pharmacokinetics; assay type: in vivo, human
# Experimental: MAD/Part 2: multiple ascending dose, randomized, placebo-controlled, double-blind; up to 5 cohorts, n=9/cohort; subjects in MAD will receive Compound 1 or the placebo. Subjects will undergo a mixed meal tolerance test (MMTT) and an SU challenge and euglycemic clamp procedure. The doses will not exceed the doses in the SAD. Doses will escalate from 30 mg to 120 mg.
# [4] = tested on: incretin-induced insulin secretion; assay: Mixed meal tolerance test (MMTT), MAD; assay type: in vivo, human; conditions: Day 6
# Experimental: An MMTT will be conducted during the MAD study to assess the impact of Compound 1 on incretin-induced insulin secretion. This will be conducted at baseline (before study drug dosing) in the MAD and at Day 6 at which Compound 1 is predicted to be at steady state.
# The purpose of the MMTT is to evaluate the effect of Compound 1 on plasma insulin in response to multiple fuel sources (protein, fat) and to evaluate the impact on incretin-induced insulin secretion. Subjects are to fast at least 10 hours overnight until ingestion of the mixed meal (which is to occur approximately 4 hours after study drug dosing), and then restrict further food intake until the end of the MMTT.
# Start the MMTT (i.e., drink the mixed meal) on Day −1 and Day 6 at 4 hours (±30 minutes) post-study drug dosing (i.e., Time 240 minutes) or at nominal time. The total duration of the MMTT will be approximately 3.5 hours from when the first pre-drink blood sample is collected until the last MMTT blood sample is collected. The subject is to be in the supine position during the MMTT, except while consuming the mixed meal. The procedure will be as follows:
# Collect pre-drink fasting blood samples for measurement of PG, insulin, C-peptide, glucagon, GIP, and GLP-1 at the timepoints specified in (SOA).
# At 4 hours after study drug dosing/Time 240 minutes (or nominal time), the subject is to drink 400 mL (2×200-mL bottles) Resource® Energy (Nestlé Health Science) drink (mixed meal) within ≤10 minutes.
# Collect post-drink blood samples for measurement of PG, insulin, C-peptide, glucagon, and GLP-1 at the timepoints specified in (SOA). The subject is to not eat or drink (except for water) until the last MMTT blood sample is collected.
smiles,measurement,setting,value
"C[C@H](NC(=O)c1cnc(C#N)c(-c2cc(F)cc(F)c2)c1N1CC[C@H](N)C1)C(F)(F)F [Compound 1, 4-[(3S)-3-aminopyrrolidin-1-yl]-6-cyano-5-(3,5-difluorophenyl)-N-[(2S)-1,1,1-trifluoropropan-2-yl]pyridine-3-carboxamide]",Inhibition of arginine-stimulated glucagon secretion,human pancreatic islets,up to 24%
same,AUC,[1],590 ng·h/mL
same,Cmax,[1],45 ng/mL
same,Food effect on exposure,[2]; 120 mg within 30 minutes of a high fat breakfast,significant reduction in exposure
same,Tmax,"[2]; human, in vivo, single oral dose, at efficacious doses",1 to 2 h
same,half-life,"[2]; human, in vivo, single oral dose, healthy volunteers",~40 h
same,Oral bioavailability and dose proportionality,[2]; single oral doses 0.5 to 120 mg,oral bioavailability with dose-proportional exposure
same,Time to steady state trough levels,[3]; QD dosing,~8 days
same,Mean accumulation at steady state for AUC,[3]; QD dosing 30-120 mg,2-2.5 ×
same,Mean accumulation at steady state for Cmaz,[3]; QD dosing 30-120 mg,1.6-1.8 ×
same,Dose proportionality of exposures,[3]; between 30 and 120 mg doses,Modestly greater than proportional increases in exposures
same,Increase in plasma glucose AUC in MMTT,[4]; 30 mg QD,~30%
same,Increase in plasma glucose AUC in MMTT,[4]; 60 mg QD,~30%
same,Increase in plasma glucose AUC in MMTT,[4]; 120 mg QD,~60%
same,Insulin and C-peptide in MMTT,[4]; 30-120 mg QD,more sustained suppression of insulin and C-peptide with increasing dose
